Reference: patent US20250161308A1, “Methods of Treating Covid-Related Disorders” (priority 2022, published 2025)
Where two headings read alike, the source gives them in different places.

Assays:
[1] = system: patient in need of treatment for long COVID; experiment: Treating long COVID (Example 1), clinical screening assessments; format: in vivo, human; conditions: patients with long COVID
Procedure: A Compound of Formula (I), such as Compound 2a or Compound 1a, or a pharmaceutically acceptable salt thereof, is administered orally to a patient in need of treatment for long COVID.
In some embodiments, a patient in need of treatment for long COVID is assessed with ADCS-ADL23. The ADCS-ADL23 (Galasko, 1997) is a 23-item assessment of functional impairment in terms of activities of daily living administered to the support person/caregiver. It comprises 23 questions about the subject's involvement and level of performance across items representing daily living. The questions range from basic to instrumental activities of daily living. Each item is rated from the highest level of independent performance to complete loss. The total score range is from 0 to 78, with lower scores indicating greater functional impairment.
A patient in need of treatment for long COVID is assessed with ERP P300. ERP P300 is a quantitative, unbiased, non-invasive method of recording task-related brain processing speed, elicited by external stimuli, e.g., an oddball auditory stimulus, and is a well-established functional biomarker, particularly of working memory access (Ally, 2006). ERP P300 is characterized by a stereotyped series of voltage deflections occurring after the respective odd tone to be counted, with early features (<100 msec) corresponding to unconscious sensory transmission (auditory cortex, N100), and later features produced by cognitive processing in the ventral attentional network, i.e., P300, referring to the large positive deflection at roughly 300 msec in healthy adults (young or elderly). The P300 latency is sensitive to detecting reduced synaptic transmission related to cognitive decline in AD patients and other dementias (Olichney, 2011).

Rat hippocampal neurons [2] = experiment: Synaptogenesis assay; format: cell-based; conditions: for Significant increase in: Synapses: Table 4 study
[3] = system: LPS-induced cognitive deficit in CD-1 mice; experiment: Rodent LPS model of brain inflammation, T-maze spontaneous alternation; format: in vivo, mouse; conditions: for Recovery (%) / Spontaneous alternation (%) Mean: LPS 250 μg/kg
[4] = system: pulmonary LPS-stimulated rats; experiment: Immune cell infiltration in BALF, LPS acute pulmonary inflammation; format: in vivo, rat
[5] = system: Rat primary cortical neuron cultures; format: cell-based; conditions: for Significance of neuroprotection vs 1 uM LPS: 24 h LPS
[6] = system: bleomycin-induced pulmonary fibrosis in C57BL/6 mice; experiment: Bleomycin-induced pulmonary fibrosis; format: in vivo, mouse; conditions: for TGF-Beta, improvement versus disease control / Collagen, improvement versus disease control / Hydroxyproline, improvement versus disease control: right lung homogenate
[7] = system: pulmonary LPS-stimulated rats; experiment: Cytokine expression in BALF supernatant (multiplex immunoassay), LPS acute pulmonary inflammation; format: in vivo, rat; conditions: any dose, p<0.05 vs LPS-only animals
[8] = system: chemically-induced spatial memory deficits in rats; experiment: Scopolamine-induced spatial memory deficit, Morris water maze (2 mg/kg scopolamine, 5 days); format: in vivo, rat
Procedure: Exemplary compound 1a was evaluated for its ability to reverse chemically-induced spatial memory deficits in rats in the Morris water maze. The water maze consists of a large round tank (diameter 1.5 m) filled with 23-26° C. water to a depth of ˜30 cm and the water was clouded with white paint. A round platform was fixed such that it rested 2-3 cm below the surface of the water. High-contrast visual cues were placed around the tank to aid spatial orientation of test animals. Testing consisted of placing an animal into the water facing the tank wall at one of three randomly assigned starting locations and allowing the animal to swim and search for the hidden platform for up to 90 seconds. The time taken for the animal to locate the platform was recorded as the escape latency. Animals were tested 5 times per day with a 30 second rest period between trials. Testing was completed for a total of 5 consecutive days.
Animals were divided into groups (N=12 per group) depending on treatment. Control animals received only empty vehicle. Scopolamine groups received 2 mg/kg scopolamine dissolved in sterile saline by intraperitoneal (IP) injection 30 minutes prior to testing. Test compound groups received test compound at various concentrations by oral gavage (PO) dissolved in 78% sterile saline, 20% polyethylene glycol (PEG-400), and 2% DMSO 40 minutes prior to testing. Escape latencies were recorded for each animal for 5 trials each day for 5 consecutive days. Changes in escape latency curves were statistically analyzed by 2-way ANOVA with Bonferoni post-test.

[9] = system: THP1-differentiated macrophages; format: cell-based, human; design: key to Significant reduction in IL-6 / Significant reduction in TNF-α / Significant reduction in IL-1β: NS: indicates a non-significant reduction in the indicated cytokine; +: indicates a p value<0.05 in Tukey post test; ++: indicates a p value<0.01 in Tukey post test; conditions: for Significant reduction in IL-1β / Significant reduction in IL-6 / Significant reduction in TNF-α: 24 hrs LPS
Rat hippocampal neurons [10] = experiment: Neurite outgrowth assay; format: cell-based; conditions: for Significant increase in: Neurite length: Table 4 study

CCC(C)CN1CC2N(C(=O)c3ccc(C(F)(F)F)cc3)CCC(=O)N2[C@@H](C)C1=O (stereo partly drawn) [Compound 1a]
patient outcome as measured by one or more of the screening assessments [1]: reduces the rate of decline, stabilizes, or improves patient outcome
safety and tolerability [1]: acceptable safety and tolerability
synapse counts (in words) (Rat hippocampal neurons [2]): increase both measures at all doses tested
Significant increase in: Synapses (Rat hippocampal neurons [2]; 1 nM): ++++ (++++ = p < 0.0001)
Significant increase in: Synapses (Rat hippocampal neurons [2]; 10 nM): ++++ (++++ = p < 0.0001)
Significant increase in: Synapses (Rat hippocampal neurons [2]; 100 nM): ++++ (++++ = p < 0.0001)
Recovery (%) ([3]; 0.5 mg/kg p.o. 14 days): 17%
Spontaneous alternation (%) Mean ([3]; 0.5 mg/kg p.o. 14 days): 49%
Spontaneous alternation (%) Mean ([3]; 0.5 mg/kg p.o. 14 days, listed as Cmpd la): 48.6%
Recovery (%) ([3]; 2 mg/kg p.o. 14 days): 56%
Spontaneous alternation (%) Mean ([3]; 2 mg/kg p.o. 14 days): 59%
Spontaneous alternation (%) Mean ([3]; 2 mg/kg p.o. 14 days, listed as Cmpd la): 58.6%
Recovery (%) ([3]; 8 mg/kg p.o. 14 days): 47%
Spontaneous alternation (%) Mean ([3]; 8 mg/kg p.o. 14 days): 56%
Spontaneous alternation (%) Mean ([3]; 8 mg/kg p.o. 14 days, listed as Cmpd la): 56.4%
Recovery (%) ([3]; 16 mg/kg p.o. 14 days): 28%
Spontaneous alternation (%) Mean ([3]; 16 mg/kg p.o. 14 days): 51%
Spontaneous alternation (%) Mean ([3]; 16 mg/kg p.o. 14 days, listed as Cmpd la): 51.4%
Recovery (%) ([3]; 32 mg/kg p.o. 14 days): 44%
Spontaneous alternation (%) Mean ([3]; 32 mg/kg p.o. 14 days): 56%
Spontaneous alternation (%) Mean ([3]; 32 mg/kg p.o. 14 days, listed as Cmpd la): 55.7%
significance of reversal of LPS-induced cognitive deficit (in words) ([3]; T-maze): significant reversal of LPS-induced cognitive deficits at 2 mg/kg
Neutrophils in BALF, reduction vs disease control ([4]; 0.0075 mg/kg IV): ++ (++ = >25% reduction in cell count vs disease control)
Total Leukocytes in BALF, reduction vs disease control ([4]; 0.0075 mg/kg IV): ++ (++ = >25% reduction in cell count vs disease control)
Neutrophils in BALF, reduction vs disease control ([4]; 0.075 mg/kg IV): + (+ = >5% reduction in cell count vs disease control)
Total Leukocytes in BALF, reduction vs disease control ([4]; 0.075 mg/kg IV): + (+ = >5% reduction in cell count vs disease control)
neutrophil counts compared to LPS-only controls (in words) ([4]; rat, in vivo): reduced both total leukocyte counts and neutrophil counts
total leukocyte counts compared to LPS-only controls (in words) ([4]; rat, in vivo): reduced both total leukocyte counts and neutrophil counts
Significance of neuroprotection vs 1 uM LPS ([5]; 0.1 nM): +++ (+++ indicates p<0.001)
Significance of neuroprotection vs 1 uM LPS ([5]; 1 nM): +++ (+++ indicates p<0.001)
Significance of neuroprotection vs 1 uM LPS ([5]; 10 nM): +++ (+++ indicates p<0.001)
Significance of neuroprotection vs 1 uM LPS ([5]; 100 nM): +++ (+++ indicates p<0.001)
Significance of neuroprotection vs 1 uM LPS ([5]; 1 μM): +++ (+++ indicates p<0.001)
protection of primary neurons from LPS-stimulated inflammatory toxicity ([5]; at at least one dose tested): protected primary neurons from LPS-stimulated inflammatory toxicity
TGF-Beta, improvement versus disease control ([6]; 0.2 mg/kg po QD): +++ (+++ => 51-100% improvement v disease control)
weight loss compared to the other treatment groups ([6]; 0.8 mg/kg): slightly greater weight loss
Right Lung Weight, improvement versus disease control ([6]; 0.8 mg/kg po QD, day 21): + (+ => 5-25% improvement v disease control)
Collagen, improvement versus disease control ([6]; 0.8 mg/kg po QD): + (+ => 5-25% improvement v disease control)
TGF-Beta, improvement versus disease control ([6]; 0.8 mg/kg po QD): +++ (+++ => 51-100% improvement v disease control)
collagen in right lung homogenate versus pirfenidone (in words) ([6]; 2 mg/kg): about the same levels of collagen
Right Lung Weight, improvement versus disease control ([6]; 2 mg/kg po QD, day 21): + (+ => 5-25% improvement v disease control)
Collagen, improvement versus disease control ([6]; 2 mg/kg po QD): ++ (++ => 26-50% improvement v disease control)
Hydroxyproline, improvement versus disease control ([6]; 2 mg/kg po QD): ++ (++ => 26-50% improvement v disease control)
TGF-Beta, improvement versus disease control ([6]; 2 mg/kg po QD): +++ (+++ => 51-100% improvement v disease control)
collagen concentration in right lung homogenates (in words) ([6]; 8 mg/kg): reduced compared to the pirfenidone positive control
hydroxyproline concentration in right lung homogenates (in words) ([6]; 8 mg/kg and 2 mg/kg): lower concentrations of hydroxyproline
Right Lung Weight, improvement versus disease control ([6]; 8 mg/kg po QD, day 21): ++ (++ => 26-50% improvement v disease control)
Hydroxyproline, improvement versus disease control ([6]; 8 mg/kg po QD): + (+ => 5-25% improvement v disease control)
TGF-Beta, improvement versus disease control ([6]; 8 mg/kg po QD): + (+ => 5-25% improvement v disease control)
protection against bleomycin-induced increases in TGF-β (in words) ([6]; all doses, day 21): significantly protected against bleomycin-induced increases in TGF-β
protection against body weight loss (in words) ([6]; all treatment groups): did not protect against body weight loss
activity in treating pulmonary fibrosis in the model ([6]; mouse, in vivo): active in treating pulmonary fibrosis
cytokines with significant changes in expression in BALF supernatant (list) [7]: G-CSF, CXCL2, CXCL10, IFN-γ, and IL-1β
Cognitive Improvement ([8]; 0.5 mg/kg PO): + (+ indicates post-test p-value between 0.06 and 0.05)
Cognitive Improvement ([8]; 2 mg/kg PO): − (− indicates post-test p-value above 0.06)
Cognitive Improvement ([8]; 8 mg/kg PO): − (− indicates post-test p-value above 0.06)
Significant reduction in IL-1β ([9]; 0.1 nM): ++ (indicates a p value<0.01 in Tukey post test)
Significant reduction in IL-6 ([9]; 0.1 nM): NS
Significant reduction in TNF-α ([9]; 0.1 nM): ++ (indicates a p value<0.01 in Tukey post test)
Significant reduction in IL-1β ([9]; 10 nM): ++ (indicates a p value<0.01 in Tukey post test)
Significant reduction in IL-6 ([9]; 10 nM): ++ (indicates a p value<0.01 in Tukey post test)
Significant reduction in TNF-α ([9]; 10 nM): ++ (indicates a p value<0.01 in Tukey post test)
Significant reduction in IL-1β ([9]; 1000 nM): ++ (indicates a p value<0.01 in Tukey post test)
Significant reduction in IL-6 ([9]; 1000 nM): + (indicates a p value<0.05 in Tukey post test)
Significant reduction in TNF-α ([9]; 1000 nM): ++ (indicates a p value<0.01 in Tukey post test)
expression of IL-1β (in words) ([9]; at at least one tested dose): significantly reduced the expression of IL-1β and TNF-α
expression of IL-6 (in words) ([9]; at at least one tested dose): significantly reduced the expression of IL-6
expression of TNF-α (in words) ([9]; at at least one tested dose): significantly reduced the expression of IL-1β and TNF-α
neurite length / extension of neurites (in words) (Rat hippocampal neurons [10]): increase both measures at all doses tested
Significant increase in: Neurite length (Rat hippocampal neurons [10]; 1 nM): ++++ (++++ = p < 0.0001)
Significant increase in: Neurite length (Rat hippocampal neurons [10]; 10 nM): ++++ (++++ = p < 0.0001)
Significant increase in: Neurite length (Rat hippocampal neurons [10]; 100 nM): + (+ = p < 0.05)
